The text below walks through data of ChEMBL document CHEMBL5131510, “Proteostasis Regulators in Cystic Fibrosis: Current Development and Future Perspectives” (J Med Chem, 2022).

Where a SMILES comes first, the peptide text is derived from it. Bridges are numbered along the chain shown (N, C = ends).

The species named for one assay is Homo sapiens. Description: Inhibition of Hsp70 ATPase activity (unknown origin) at 200 uM incubated for 3 hrs in presence of ATP by malachite green assay relative to control.
In assay [1] the test system is Cystic fibrosis transmembrane conductance regulator (Homo sapiens), P13569 [F508del]. As to the kind of experiment: Stabilization of F508del-CFTR in human CFBE41o- cells assessed as OUTB1 occupancy by Proteomic analysis relative to control. Type of assay: cell-based.
Cystic fibrosis transmembrane conductance regulator (Homo sapiens), P13569 [F508del], sequence (P13569 as listed by the source): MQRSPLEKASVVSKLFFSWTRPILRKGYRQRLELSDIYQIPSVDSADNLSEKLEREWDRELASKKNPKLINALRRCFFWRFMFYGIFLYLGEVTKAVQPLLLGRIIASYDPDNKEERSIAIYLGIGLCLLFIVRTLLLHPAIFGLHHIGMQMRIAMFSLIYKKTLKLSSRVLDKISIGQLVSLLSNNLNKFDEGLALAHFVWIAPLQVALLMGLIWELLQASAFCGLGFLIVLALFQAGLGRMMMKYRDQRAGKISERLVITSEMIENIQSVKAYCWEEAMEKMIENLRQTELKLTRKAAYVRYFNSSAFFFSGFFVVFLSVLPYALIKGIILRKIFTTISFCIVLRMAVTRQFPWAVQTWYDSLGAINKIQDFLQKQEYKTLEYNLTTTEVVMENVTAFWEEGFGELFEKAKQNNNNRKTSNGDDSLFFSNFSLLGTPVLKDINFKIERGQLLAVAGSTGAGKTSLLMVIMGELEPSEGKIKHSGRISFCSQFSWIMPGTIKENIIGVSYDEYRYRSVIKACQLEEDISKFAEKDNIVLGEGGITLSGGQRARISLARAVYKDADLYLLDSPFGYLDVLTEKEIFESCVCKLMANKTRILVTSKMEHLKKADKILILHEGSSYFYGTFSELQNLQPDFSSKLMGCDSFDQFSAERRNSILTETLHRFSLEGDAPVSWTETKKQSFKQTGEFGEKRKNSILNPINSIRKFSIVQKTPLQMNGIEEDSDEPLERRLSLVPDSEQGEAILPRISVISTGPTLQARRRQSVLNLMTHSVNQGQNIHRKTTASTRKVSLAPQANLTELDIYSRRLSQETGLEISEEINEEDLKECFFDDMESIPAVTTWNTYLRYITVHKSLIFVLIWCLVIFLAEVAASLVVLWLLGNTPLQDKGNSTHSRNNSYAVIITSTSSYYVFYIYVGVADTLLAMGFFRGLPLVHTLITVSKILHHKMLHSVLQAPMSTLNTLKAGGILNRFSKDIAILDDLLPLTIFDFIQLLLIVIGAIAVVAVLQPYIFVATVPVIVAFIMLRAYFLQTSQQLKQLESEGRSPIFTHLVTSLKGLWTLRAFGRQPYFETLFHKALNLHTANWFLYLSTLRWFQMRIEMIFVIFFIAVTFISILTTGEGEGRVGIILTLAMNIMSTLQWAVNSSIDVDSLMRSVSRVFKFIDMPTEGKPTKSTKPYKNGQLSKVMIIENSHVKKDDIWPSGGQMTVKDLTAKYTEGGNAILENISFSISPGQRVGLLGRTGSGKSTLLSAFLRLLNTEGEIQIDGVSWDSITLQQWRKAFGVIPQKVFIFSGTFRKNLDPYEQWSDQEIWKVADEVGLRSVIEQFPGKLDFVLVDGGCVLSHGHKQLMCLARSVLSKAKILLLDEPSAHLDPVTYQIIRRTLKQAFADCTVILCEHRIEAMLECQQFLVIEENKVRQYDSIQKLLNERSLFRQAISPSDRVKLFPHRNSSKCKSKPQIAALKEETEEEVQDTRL
Assay [2] deals with T1, Golgi-associated PDZ and coiled-coil motif-containing protein (Homo sapiens, UniProt Q9HD26). Description: Inhibition of CAL PDZ domain (unknown origin) assessed as inhibition constant by fluorescence polarization competition assay.
The nature of assay [3]: Inhibition of Hsp40-stimulated yeast Hsp70 ATPase activity assessed as inhibition constant by single-turnover assay. Details: species or system Saccharomyces cerevisiae.
The nature of assay [4]: Ex vivo inhibition of PARP-1 in ileum of cystic fibrosis mouse model assessed as rescue of F508del-CFTR activity at 1 nM treated for 4 hrs in presence of forskolin/genistein relative to control. Type of assay: functional. Details: scale not given: the % may be the effect or the level left.
A further assay relates to Mus musculus. As to the kind of experiment: In vivo rescue of F508del-CFTR activity in cystic fibrosis mouse model assessed as measuring salivary secretion at 5 mg/kg/day, ip qd for 2 days relative to control. The class given is functional. As to conditions: time 2 day.
A short description of assay [5]: Rescue of F508del-CFTR residual channel activity in hamster BHK cells assessed as fold increase in forskolin/genistein-induced iodide efflux measured every minute for 10 mins.
The target of assay [6] is T2, Protein mono-ADP-ribosyltransferase PARP16 (Homo sapiens, UniProt Q8N5Y8).
T2 sequence (Q8N5Y8 whole entry): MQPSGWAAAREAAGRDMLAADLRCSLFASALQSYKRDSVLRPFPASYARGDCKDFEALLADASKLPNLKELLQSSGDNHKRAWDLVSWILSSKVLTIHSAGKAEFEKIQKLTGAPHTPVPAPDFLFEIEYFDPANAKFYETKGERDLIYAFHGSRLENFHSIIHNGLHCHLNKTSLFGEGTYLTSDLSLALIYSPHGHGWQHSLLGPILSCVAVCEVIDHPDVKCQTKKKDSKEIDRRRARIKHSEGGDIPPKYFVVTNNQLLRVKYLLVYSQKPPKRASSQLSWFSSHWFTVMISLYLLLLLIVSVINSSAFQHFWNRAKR
As to the kind of experiment: Inhibition of PARP16 (unknown origin) using 6xHis-tagged IRE-1 as substrate incubated for 1 hr by chemiluminescence assay.

Assay [7] addresses T3, Protein mono-ADP-ribosyltransferase PARP3 (Homo sapiens, UniProt Q9Y6F1).
T3 sequence (Q9Y6F1 whole entry): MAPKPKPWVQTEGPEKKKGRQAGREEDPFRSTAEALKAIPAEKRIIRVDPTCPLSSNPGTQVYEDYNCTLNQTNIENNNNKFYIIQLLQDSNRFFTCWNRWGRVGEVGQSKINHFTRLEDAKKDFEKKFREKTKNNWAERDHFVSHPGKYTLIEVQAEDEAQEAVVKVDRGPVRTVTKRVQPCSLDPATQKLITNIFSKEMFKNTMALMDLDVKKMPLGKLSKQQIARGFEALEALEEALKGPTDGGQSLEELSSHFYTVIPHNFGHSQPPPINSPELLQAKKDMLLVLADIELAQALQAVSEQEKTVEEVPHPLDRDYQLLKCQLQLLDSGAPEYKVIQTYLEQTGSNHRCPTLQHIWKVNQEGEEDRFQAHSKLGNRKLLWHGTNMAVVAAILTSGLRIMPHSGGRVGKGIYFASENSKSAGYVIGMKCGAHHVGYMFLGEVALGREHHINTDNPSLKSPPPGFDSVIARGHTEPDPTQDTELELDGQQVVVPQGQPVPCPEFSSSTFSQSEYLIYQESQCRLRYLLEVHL
Description: Inhibition of recombinant human PARP3 expressed in baculovirus expression system using anchored-histone proteins as substrate incubated for 1 hr by chemiluminescence assay.

Assay [8] relates to Cystic fibrosis transmembrane conductance regulator (Homo sapiens), P13569 [F508del]. Description: Modulation of F508del-CFTR mutant in HBE cells assessed as fold increase in CFTR mRNA levels by […]. Type of assay: cell-based. As to conditions: filed as modulator.
In assay [9] the target is T1, Golgi-associated PDZ and coiled-coil motif-containing protein. Description: Binding affinity to CAL PDZ domain (unknown origin) assessed as dissociation constant in presence of tris(carboxylethyl)phosphine by fluorescence anisotropy analysis.
Assay [10] relates to Cystic fibrosis transmembrane conductance regulator (Homo sapiens), P13569 [F508del]. As to the kind of experiment: Modulation of F508del-CFTR mutant transfected in human HEK293 cells assessed as fold increase in level of ER glycosylated form of F508del-CFTR at 30 uM treated for 24 hrs by immunoblot assay. The following applies: filed as modulator. The class given is cell-based.

Take `COc1ccc(-c2nc(-c3cc(C(F)(F)F)cc(C(F)(F)F)c3)n(Cc3ccc(C(N)=O)cc3)c2-c2ccc(OC)cc2)cc1`: in the assay filed under Homo sapiens, the inhibition worked out at 55%.
As for `C=CC(=O)N1CCN(c2ccc(CCC(=O)NCCCCCNC(=O)c3cccc(-c4nc(NC(=O)C5(c6ccc7c(c6)OC(F)(F)O7)CC5)ccc4C)c3)o2)C(=O)C1`, in [1], the Activity was 60%.
Take `CC(=O)N[C@@H](Cc1c[nH]c2ccccc12)C(=O)N[C@@H](CCC(N)=O)C(=O)N[C@H](C(=O)N[C@H](C(=O)N[C@@H](CCCNC(=N)N)C(=O)N[C@H](C(=O)O)C(C)C)[C@@H](C)O)C(C)C` (Ac-WQVTRV-OH): in [2], the Ki turned out to be 2.3 µM.
In the case of `CCCCCCCCCCCCC/C=C/[C@@H](O)[C@H](COC1O[C@H](CO)[C@H](O)[C@H](OS(=O)(=O)O)[C@H]1O)NC(=O)CC12CC3CC(CC(C3)C1)C2` (stereo not given in full), in assay [3], the Ki came out at 10 µM.
On to `C[C@]1(c2nc3c(C(N)=O)cccc3[nH]2)CCCN1` [VELIPARIB], for which the Activity was 7% in assay [4] and 7.8% with Mus musculus.
Turning to `N#CCc1nnc(-c2ccccn2)[nH]1`, the “fold change (FC)” value in assay [5] is listed as 2.5.
For `O=C1NC[C@@H](c2ccccn2)[C@@H](O)c2cc(Cl)c(Cl)cc21`, the 50% inhibitory concentration (IC50) in assay [6] stood at 0.362 µM; in [7] it was 74.1 µM.
Take `O=C(NCCCn1nncc1CO)c1cc(-c2ccccc2)on1`: the fold change (FC) in assay [8] worked out at 1.5.
On to `O=C1NC[C@@H](c2ccccc2)[C@@H](O)c2ccccc21`, for which the IC50 turned out to be 296 µM in assay [6] and 3.1 µM in assay [7].
Turning to `CCN(CC)c1ccc(N/N=C2\C(=O)C=Cc3ccccc32)cc1`, the “fold change (FC)” value in assay [5] amounted to 2.5.
On to `CC(=O)N[C@H]1CSSC[C@@H](C(=O)N[C@H](C(=O)N[C@@H](CCCNC(=N)N)C(=O)N[C@H](C(=O)O)C(C)C)[C@@H](C)O)NC(=O)[C@H](CCC(N)=O)NC(=O)[C@H](Cc2c[nH]c3ccccc23)NC(=O)[C@H](Cc2ccccc2)NC(=O)[C@H](CCCNC(=N)N)NC(=O)[C@H](CCCNC(=N)N)NC(=O)[C@H](CCCNC(=N)N)NC(=O)[C@H](CCCNC(=N)N)NC1=O` (Ac-CRRRRFWQCTRV-OH; disulfide 1-9), for which the Kd in [9] was determined as 0.49 µM.
With `CC1=C(C(=O)OCc2ccccc2)C(c2ccc(Cl)cc2Cl)NC(=O)N1CCCC(=O)O` (stereo not given), the fold change (FC) in assay [10] stood at 2.1.
